Source: US20220323400A1, “INHIBITORS OF SGLT AND USES THEREOF” (The Regents of the University of Michigan, priority 2019, published 2022)

Assays:
CF rabbits [1] = test: Intravenous glucose tolerance test (IVGTT) in CF rabbits treated with LX4211; format: in vivo, rabbit; details: FIG. 1
Description: (§1) ) has beneficial effects on treating CF, 5 CF rabbits were daily gavaged with LX4211 (15 mg/kg/day) for 4 weeks. The intravenous glucose tolerance test (IVGTT) and insulin tolerance test (ITT) were performed before treatment and at 4 weeks after treatment. Urine was collected daily to assess urinary glucose excretion. Blood was collected biweekly for the analysis of chemical panels including glucose, insulin, liver function, kidney function, lipid profiles and electrolytes. At the end of the experiment, the organ tissues of CF rabbits were collected for histology staining.

CF rabbits [2] = test: Urinary glucose excretion in CF rabbits treated with LX4211; format: in vivo, rabbit; details: 15 mg/kg/day daily gavage
Description: as §1

CF rabbits [3] = test: Blood chemical panels in CF rabbits treated with LX4211; format: in vivo, rabbit
Description: as §1
Abnormalities of serum ALP, CPK and Calcium were also detected in CF rabbits.

CF rabbits [4] = format: in vivo, rabbit
Description: as §1
Because most CF rabbits eventually die of gut obstruction for which abdominal hardening (which can be felt by palpation) has been used as a clinical sign, such softening may indicate beneficial effects on alleviating GI obstruction, although further studies are needed to confirm this predication.

CF rabbits [5] = test: Survival length of CF rabbits treated with LX4211; format: in vivo, rabbit; details: FIG. 3
WT rabbits = test: Urine sugar levels in WT rabbits after Sota treatment; format: in vivo, rabbit; details: WT rabbits (n=2)
Description: Experiments were conducted that first examined the physiological responses of rabbits to Sota by measuring the urine sugar levels to assess urinary glucose excretion (FIG. 9). Sota was given to WT rabbits (n=2) daily for five days. […] This confirmed that rabbits respond to Sota similarly as rodents and human patients.

CF rabbits [6] = test: IVGTT in CF rabbits prior to and after Sota treatment; format: in vivo, rabbit; details: CF rabbits (n=6), 15 mg/kg/day daily gavage 4 weeks, vs non-treatment, FIGS. 10B & C
Description: Experiments were conducted that next proceeded to treat CF rabbits (n=6) with Sota (15 mg/kg/day) by daily gavage for 4 weeks (FIG. 10A). The IVGTT test was performed prior to and 4 weeks after treatment.

CF rabbits [7] = test: Blood chemistry of CF rabbits treated with Sota for 10 weeks; format: in vivo, rabbit; details: 5 CF rabbits treated 10 weeks vs untreated control group, FIG. 11
Excerpt: It is known that many CF patients show abnormalities in their blood chemistry tests. Blood chemistry in CF rabbits was also examind. In one study, blood was collected from 5 CF rabbits for the analysis of chemical panels including electrolytes, glucose and other metabolic parameters, and compared with those of WT rabbits (n=15). CF rabbits presented many abnormalities in metabolic parameters including lower serum potassium (WT 4.35±0.25 vs. CF 3.14±0.3, p<0.05), higher triglyceride (WT 75.8±69.5 vs. CF 447.0±76.6, p<0.05), cholesterol (WT 31.6±9.76 vs. CF 177.2±206.3, p<0.05) and glucose (WT 110.4±9.99 vs. CF 160.6±37.5, p<0.05). Abnormalities of serum ALP, CPK and Calcium were also detected in CF rabbits.
To evaluate if Sota has any effects on the blood chemistry parameters of CF rabbits, experiments were conducted wherein 5 CF rabbits were treated with Sota for 10 weeks.

CF rabbits [8] = test: Lifespan (survival curve) of Sota-treated CF rabbits; format: in vivo, rabbit; details: treatment starting on Day 49 of age
Excerpt: This is further supported by the elongated lifespan of Sota-treated CF rabbits. […] These findings indicate that contrary to the beliefs by many, the SGLT inhibitor drugs are indicative of bringing benefits with minimal risks to CF patients.

[9] = rabbit, in vivo

Substance: Sotagliflozin [LX4211]
- glucose tolerance (CF rabbits [1]; CF rabbits, 15 mg/kg/day, before vs 4 weeks after treatment): restored glucose tolerance
- GTT response of one CF rabbit with signs of CF related diabetes (CFRD) (CF rabbits [1]; one CF rabbit, prior to vs after treatment): restored to normal
- urine glucose levels (CF rabbits [2]): spiked starting D1 after the treatment
- CPK (CF rabbits [3]; 15 mg/kg/day, FIG. 4): significant rescue effects
- Calcium (CF rabbits [3]; 15 mg/kg/day, FIG. 4): significant rescue effects
- cholesterol (CF rabbits [3]; 15 mg/kg/day, FIG. 4): significant rescue effects
- triglyceride (CF rabbits [3]; 15 mg/kg/day, FIG. 4): significant rescue effects
- hyperglycemia (glucose) (CF rabbits [3]; 15 mg/kg/day, FIG. 4, FIG. 5): significantly attenuated
- hypokalemia (serum potassium) (CF rabbits [3]; 15 mg/kg/day, FIG. 4, FIG. 5): significantly attenuated
- ALB (Albumin) (CF rabbits [3]; FIG. 6): restored
- TPRO (Total Protein) (CF rabbits [3]; FIG. 6): restored
- daily abdominal palpation (CF rabbits [4]; CF rabbits, 15 mg/kg/day daily gavage, abdominal hardening is a clinical sign of gut obstruction): softening of the abdominal
- adverse response to treatment (CF rabbits [4]; rabbit, in vivo, 15 mg/kg/day): no obvious adverse response
- survival length (CF rabbits [5]): improved survival length
- urine sugar level upon retrieval of the drug (WT rabbits; D7, FIG. 9): immediately returned to normal
- urine sugar level during treatment (WT rabbits; daily for five days, D1-D5, FIG. 9): spike of urine sugar level was seen the second day (D1) and remained high during the treatment days
- blood glucose elimination rate (IVGTT) (CF rabbits [6]): significantly higher
- ALP (CF rabbits [7]): significantly improved
- CPK (CF rabbits [7]): significantly improved
- Chol (CF rabbits [7]): significantly improved
- Glucose (CF rabbits [7]): significantly improved
- K+ (CF rabbits [7]): significantly improved
- Trig (CF rabbits [7]): significantly improved
- median lifespan (CF rabbits [8]; CF rabbits (n=10), FIG. 12 right panel): > 150 days
- number of treated CF rabbits that lived beyond 150 days (CF rabbits [8]; of n=10 CF rabbits): 6
- weight gain [9]: gained weight at a similar rate
